Patent publication US10730815B2, “Method of producing purified stilbene compounds” (MORINAGA & CO., LTD., priority 2014, dated 2020)

Assay: Precipitation of various stilbene compounds by γ-CD: concentration in supernatant (HPLC)
Assay type: physicochemical
Protocol: γ-CD solutions of six different concentrations (42.78, 85.56, 106.95, 128.33, 171.11, 213.89 mg/mL) were prepared.
The mixed solutions were stirred under light shielding conditions at 25° C. for 24 hours. Subsequently, they were subjected to centrifugation at 15,000 rpm at 25° C. for 5 minutes to collect the supernatants. These supernatants were further subjected to centrifugation using the same conditions to obtain another batch of supernatants.
Resveratrol (denoted by “Res” in the figure), rhapontigenin (denoted by “Rha” in the figure), and isorhapontigenin (denoted by “Isorha” in the figure) were used as the stilbene compounds to prepare respective solutions of the stilbene compounds. To each solution, γ-CD was added. Precipitation of these stilbene compounds by γ-CD and the relation between the concentration of γ-CD and the precipitation of the stilbene compounds were examined. Procedures for the preparation of the solutions and the measurement using HPLC were similar to those described in the above Example 1(3).

Q: Which “Concentration of Isorha in liquid” value (γ-CD 0 mg/mL final) does the source give for `COc1cc(/C=C/c2cc(O)cc(O)c2)ccc1O` [Isorha, isorhapontigenin] here?
A: Its value is 0.19 mg/mL.

Q: What about the “Concentration of Isorha in liquid” value (γ-CD 12.8 mg/mL final) of the same molecule?
A: The value was 0.0 mg/mL.

Q: And the “Concentration of Isorha in liquid” value (γ-CD 25.7 mg/mL final)?
A: Its value is 0.0 mg/mL.

Q: And the “Concentration of Isorha in liquid” value (γ-CD 32.1 mg/mL final)?
A: Its value is 0.0 mg/mL.

Q: And the “Concentration of Isorha in liquid” value (γ-CD 38.5 mg/mL final)?
A: Its value is 0.0 mg/mL.

Q: And the “Concentration of Isorha in liquid” value (γ-CD 51.3 mg/mL final)?
A: Its value is 0.0 mg/mL.

Q: And the “Concentration of Isorha in liquid” value (γ-CD 64.2 mg/mL final)?
A: The value was 0.0 mg/mL.

Q: With `Oc1ccc(/C=C/c2cc(O)cc(O)c2)cc1` [Res, Resveratrol] as the molecule, how does the “Concentration of Res in liquid” value (γ-CD 0 mg/mL final) read?
A: The value was 0.028 mg/mL.

Q: And the “Concentration of Res in liquid” value (γ-CD 12.8 mg/mL final)?
A: The value was 0.020 mg/mL.

Q: What about the “Concentration of Res in liquid” value (γ-CD 25.7 mg/mL final) of the same molecule?
A: The value was 0.012 mg/mL.

Q: And the “Concentration of Res in liquid” value (γ-CD 32.1 mg/mL final)?
A: The value was 0.010 mg/mL.

Q: And the “Concentration of Res in liquid” value (γ-CD 38.5 mg/mL final)?
A: Its value is 0.0082 mg/mL.

Q: And the “Concentration of Res in liquid” value (γ-CD 51.3 mg/mL final)?
A: Its value is 0.0058 mg/mL.

Q: What about the “Concentration of Res in liquid” value (γ-CD 64.2 mg/mL final) of the same molecule?
A: The value was 0.0037 mg/mL.

Q: Which “Concentration of Rha in liquid” value (γ-CD 0 mg/mL final) does the source give for `COc1ccc(/C=C/c2cc(O)cc(O)c2)cc1O` [Rha, rhapontigenin] here?
A: The value was 0.097 mg/mL.

Q: And the “Concentration of Rha in liquid” value (γ-CD 12.8 mg/mL final)?
A: The value was 0.060 mg/mL.

Q: And the “Concentration of Rha in liquid” value (γ-CD 25.7 mg/mL final)?
A: The value was 0.020 mg/mL.

Q: What about the “Concentration of Rha in liquid” value (γ-CD 32.1 mg/mL final) of the same molecule?
A: Its value is 0.017 mg/mL.

Q: What about the “Concentration of Rha in liquid” value (γ-CD 38.5 mg/mL final) of the same molecule?
A: Its value is 0.013 mg/mL.

Q: What about the “Concentration of Rha in liquid” value (γ-CD 51.3 mg/mL final) of the same molecule?
A: Its value is at most 0.010 mg/mL.

Q: What about the “Concentration of Rha in liquid” value (γ-CD 64.2 mg/mL final) of the same molecule?
A: Its value is at most 0.010 mg/mL.
